From US20140274766A1, “METHODS OF USING F-SPONDIN AS A BIOMARKER FOR CARTILAGE DEGENERATIVE CONDITIONS AND BONE DISEASES” (priority 2009, published 2014)

How the values were obtained:
OA cartilage = experiment: IL-1 effect on gene expression in OA cartilage explant cultures (QPCR); assay type: cell-based, human; details: IL-1 1 ng/ml, 24-72 h, OA cartilage explants
Method: FIG. 7: IL-1 inhibited F-spondin and aggrecan expression in OA cartilage. OA cartilage was stimulated with IL-1 (1 ng/ml) for 24-72 h and total RNA was isolated and QPCR was performed.
Since IL-1 β appears to play a significant role in the pathogenesis of OA, its effects on F-spondin expression by QPCR in cartilage explants cultures was studied. Briefly, knee articular cartilage from patients undergoing knee replacement surgery was obtained and cut in 3-mm discs, and four to six discs (˜100 mg) were placed in organ culture in 2 ml of Ham's F-12 medium+0.1% human albumin (endo toxin fr) for 24-72 h, in the presence and absence of IL-1beta (1 ng/ml). At the end of the experiment the cartilage was frozen immediately in liquid nitrogen for RNA extraction.

chick chondrocytes = experiment: Alkaline phosphatase (AP) activity in RA-stimulated chick chondrocyte cultures; assay type: cell-based; details: RA 3 days
Method: FIG. 16. Inhibition of F-spondin decreases AP activity in RA stimulated cultures. Chick chondrocytes were treated with RA at 100 nm for 5 days with and without F-spondin antibodies and AP activity assessed. Antibodies with specificities to the spondin domain (medium grey) and TSR domain (black) inhibited AP activity compared to ctrl (noAb) (light grey). Note the greater inhibitory effect of the TSR domain antibody. * p=<0.05 versus no ab ctrl.
FIG. 17. The pro-maturation effect of F-spondin is not inhibited following neutralization of TGF-β activity by coculture with Latency Associated Peptide (LAP). AP activity was determined in chick chondrocyte cultures by ELISA following RA stimulation for 3 days. Cultures were either ctrl (RA only) or RA with either F-Spondin (1 ug/ml) or LAP (10 or 100 ng/ml), or RA with F-Spondin (1 ug/ml) and LAP (10 or 100 ng/ml) in combination.
FIG. 18. Blocking αvβ3 integrin inhibits the promaturation effect of F-spondin. Chondocyte cultures were transfected as previously and stimulated with RA for 3 days in the presence of IgG control, or αvβ3 blocking antibodies prior to assay for AP activity. Inhibition of αvβ3 led to a ˜50% suppression of F-spondin-induced AP activity but had no effect on baseline AP activity (vector ctrl).
FIGS. 23A, 23B and 23C. F-spondin regulation of chondrocyte maturation requires the TSR domain. (A) Schematic representation of F-spondin protein domains and plasmid constructs encoding either full length (FS1) or TSR domain truncated (FS6) cDNAs. (B) Relative AP activity of FS or pcDNA3 control transfected cultures after 5 days treatment. (C) Relative AP activity following inhibition of F-spondin protein domains. Upper sternal chondrocytes were stimulated with 0, 10, 35 or 100 nM retinoic acid (RA) for 5 days in culture. […]
We next determined that the pro-maturation effect of F-spondin is not inhibited following neutralization of TGF-β activity by coculture with Latency Associated Peptide (LAP) (R&D Systems, Cat No 246-LP/CF). […] AP activity was determined in chick chondrocyte cultures by ELISA following RA stimulation for 3 days. […]

[1] = tested on: embryonic chick chondrocytes; experiment: TGF-β treatment of embryonic chick chondrocytes, maturation marker expression (quantitative PCR); assay type: cell-based; details: TGF-β 5 days
Method: FIGS. 24A and 24B. TGF-β enhances chondrocyte maturation and is required for F-spondin mediated induction of AP. (A) Relative gene expression of chondrocyte maturation markers following TGF-β treatment. Upper sternal chondrocytes were treated with TGF-β at the indicated doses for 5 days and mRNA levels determined by quantitative PCR. Values are expressed relative to untreated controls. (B) Effect of TGF-β depletion on F-spondin-mediated induction of AP. The conditioned media of FS1 or pcDNA3 transfected chondrocytes was harvested and immunodepleted of TGF-β or left untreated, and added to separate cultures in the presence of RA. […] Values represent mean expression levels of triplicate samples relative to untreated supernatants from vector ctrl cultures (=1).
We have previously reported that F-spondin can regulate the synthetic activity of articular chondrocytes via activation of latent TGF-β (Attur, M et al (2009) Faseb J 23:79-89). Since the TSR domain harbors conserved TGF-β binding motifs, we proposed that F-spondin-mediated enhancement of chondrocyte maturation similarly occurs via TGF-β. […] To determine whether […] is required for F-spondin induction of AP, we transfected chick chondrocytes with FS1 or control vector cDNA and harvested conditioned media supernatants after 48 h. Supernatants were then depleted of TGF-β by coincubation with anti-TGF-b antibody and added to separate cultures of chick chondrocytes in the presence of retinoic acid for 24 h.

In the case of IL-1: pro-inflammatory cytokine, the “expression of F-spondin” value (OA cartilage) is reported as “significantly inhibited” and the expression of aggrecan (OA cartilage) is reported as “significantly inhibited”.

For “LAP: Latency Associated Peptide (R&D Systems), neutralizes TGF-β activity”, the “effect on AP activity increase seen with F-spondin alone” value (chick chondrocytes; LAP 10-100 ng/ml with F-Spondin 1 ug/ml) was “did not significantly alter” and the chondrocyte maturation (chick chondrocytes; LAP 10-100 ng/ml) was “accelerates maturation”.

With TGF-β the “expression of AP” value [1] was “dose dependent increases”, the “expression of F-spondin” value [1] was “dose dependent increases” and the “expression of MMP-13” value [1] was “dose dependent increases”.
